Experiments:
[1] = biological target: Prostaglandin G/H synthase 1 (Homo sapiens, UniProt P23219); experiment: biochemical; type: tissue-based, Platelet; conditions: platelet;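 also: inhibition of COX-1 enzyme activity, with arachidonic acid supplied as substrate; in other assays of this panel Not Active means under 50% inhibition at 10 µM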
[2] = DRUGMATRIX: Glutamate, NMDA, Agonism radioligand binding (ligand: [3H] CGP-39653); type: cell membranes, Rattus norvegicus, Wistar, Cerebral cortex, Membrane; conditions: Not Active = under 50% inhibition at 10 µM
[3] = DRUGMATRIX: Atrial Natriuretic Factor (ANF) radioligand binding (ligand: [125I] ANF (rat)); type: cell membranes, Cavia porcellus, Dunkin-Hartley, Adrenal gland, Membrane; conditions: Not Active = under 50% inhibition at 10 µM
[4] = DRUGMATRIX: Tumor Necrosis Factor (TNF), Non-Selective radioligand binding (ligand: [125I] TNF-alpha); type: cell membranes, Membrane; conditions: u-937; Not Active = under 50% inhibition at 10 µM
[5] = biological target: T1, 5-hydroxytryptamine receptor 2C (Homo sapiens, UniProt P28335); experiment: DRUGMATRIX: Serotonin (5-Hydroxytryptamine) 5-HT2C radioligand binding (ligand: [3H] Mesulergine); type: cell membranes, CHO-K1, Membrane; conditions: cho-k1; Not Active = under 50% inhibition at 10 µM
T1 sequence (P28335 whole entry): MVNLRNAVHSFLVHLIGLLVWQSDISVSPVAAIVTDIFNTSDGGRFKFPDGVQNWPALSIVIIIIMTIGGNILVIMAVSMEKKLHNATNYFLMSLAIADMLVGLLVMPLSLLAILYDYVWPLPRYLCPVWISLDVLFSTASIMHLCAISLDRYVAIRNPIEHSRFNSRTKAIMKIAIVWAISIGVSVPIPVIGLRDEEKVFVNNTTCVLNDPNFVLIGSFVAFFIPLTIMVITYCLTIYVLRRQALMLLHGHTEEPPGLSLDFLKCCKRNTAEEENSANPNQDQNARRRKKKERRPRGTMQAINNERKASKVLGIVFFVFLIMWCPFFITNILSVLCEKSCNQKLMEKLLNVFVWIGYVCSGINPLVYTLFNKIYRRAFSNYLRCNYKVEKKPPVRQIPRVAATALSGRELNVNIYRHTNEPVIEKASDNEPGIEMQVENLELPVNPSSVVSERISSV

[6] = biological target: Platelet-activating factor receptor (Homo sapiens, UniProt P25105); experiment: biochemical; type: tissue-based; conditions: platelet; also: in other assays of this panel Not Active means under 50% inhibition at 10 µM
[7] = biological target: Protein kinase C alpha type (Homo sapiens, UniProt P17252); type: cell-based; conditions: sf9;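 also: inhibition of PKCalpha kinase activity measured in an enzyme assay with histone as the phosphorylation substrate; in other assays of this panel Not Active means under 50% inhibition at 10 µM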
[8] = DRUGMATRIX: Nicotinic Acetylcholine radioligand binding (ligand: [125I] Epibatidine); type: cell membranes, Membrane; conditions: imr-32; Not Active = under 50% inhibition at 10 µM
[9] = biological target: T2, Angiotensin-converting enzyme (Oryctolagus cuniculus, UniProt P12822); experiment: biochemical; type: tissue-based, Lung;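 also: enzymatic inhibition of angiotensin-converting enzyme measured with FAPGG as the substrate; in other assays of this panel Not Active means under 50% inhibition at 10 µM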
T2 sequence (P12822 whole entry): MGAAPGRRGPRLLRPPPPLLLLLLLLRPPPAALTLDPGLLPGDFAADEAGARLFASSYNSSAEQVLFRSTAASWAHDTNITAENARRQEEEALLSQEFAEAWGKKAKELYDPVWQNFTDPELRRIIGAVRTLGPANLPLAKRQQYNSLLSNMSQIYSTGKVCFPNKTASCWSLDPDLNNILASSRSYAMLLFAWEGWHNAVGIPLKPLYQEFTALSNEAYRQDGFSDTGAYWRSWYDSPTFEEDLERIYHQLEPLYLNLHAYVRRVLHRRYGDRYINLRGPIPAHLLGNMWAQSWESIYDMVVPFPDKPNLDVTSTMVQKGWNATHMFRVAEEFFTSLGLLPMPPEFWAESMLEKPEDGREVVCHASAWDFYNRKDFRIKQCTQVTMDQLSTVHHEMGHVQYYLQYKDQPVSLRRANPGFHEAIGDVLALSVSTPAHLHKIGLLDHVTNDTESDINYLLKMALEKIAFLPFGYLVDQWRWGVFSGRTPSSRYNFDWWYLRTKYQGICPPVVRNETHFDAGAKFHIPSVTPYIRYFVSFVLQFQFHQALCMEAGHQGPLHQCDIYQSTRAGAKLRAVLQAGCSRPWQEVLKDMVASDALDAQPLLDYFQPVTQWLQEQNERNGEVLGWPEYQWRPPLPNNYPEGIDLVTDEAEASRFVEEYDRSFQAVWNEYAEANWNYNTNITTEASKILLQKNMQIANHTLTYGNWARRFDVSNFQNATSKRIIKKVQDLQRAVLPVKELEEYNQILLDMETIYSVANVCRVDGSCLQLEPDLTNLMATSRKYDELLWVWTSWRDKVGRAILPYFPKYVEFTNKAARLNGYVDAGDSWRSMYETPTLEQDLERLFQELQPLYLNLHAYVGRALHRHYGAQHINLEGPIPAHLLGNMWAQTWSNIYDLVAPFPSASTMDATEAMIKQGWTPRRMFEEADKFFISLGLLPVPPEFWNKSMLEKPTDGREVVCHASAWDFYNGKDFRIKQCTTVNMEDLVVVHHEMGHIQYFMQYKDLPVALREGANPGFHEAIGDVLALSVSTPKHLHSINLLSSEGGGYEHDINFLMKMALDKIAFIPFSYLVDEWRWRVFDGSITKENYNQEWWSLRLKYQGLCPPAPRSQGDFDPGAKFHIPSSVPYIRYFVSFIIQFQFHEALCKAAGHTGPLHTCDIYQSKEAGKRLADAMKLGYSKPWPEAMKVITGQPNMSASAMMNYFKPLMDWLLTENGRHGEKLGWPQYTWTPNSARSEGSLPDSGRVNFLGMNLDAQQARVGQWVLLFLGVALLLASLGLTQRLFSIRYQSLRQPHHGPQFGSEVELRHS

[10] = biological target: Cytochrome P450 3A4 (Homo sapiens, UniProt P08684); conditions: bti-tn-5b1-4; also: in other assays of this panel Not Active means under 50% inhibition at 10 µM
[11] = biological target: Beta-2 adrenergic receptor (Homo sapiens, UniProt P07550); experiment: DRUGMATRIX: Adrenergic beta2 radioligand binding (ligand: [3H] CGP-12177); type: cell membranes, Membrane; conditions: cho; Not Active = under 50% inhibition at 10 µM
[12] = biological target: T3, Caspase-1 (Homo sapiens, UniProt P29466); design: species or system Escherichia coli
T3 sequence (P29466 whole entry): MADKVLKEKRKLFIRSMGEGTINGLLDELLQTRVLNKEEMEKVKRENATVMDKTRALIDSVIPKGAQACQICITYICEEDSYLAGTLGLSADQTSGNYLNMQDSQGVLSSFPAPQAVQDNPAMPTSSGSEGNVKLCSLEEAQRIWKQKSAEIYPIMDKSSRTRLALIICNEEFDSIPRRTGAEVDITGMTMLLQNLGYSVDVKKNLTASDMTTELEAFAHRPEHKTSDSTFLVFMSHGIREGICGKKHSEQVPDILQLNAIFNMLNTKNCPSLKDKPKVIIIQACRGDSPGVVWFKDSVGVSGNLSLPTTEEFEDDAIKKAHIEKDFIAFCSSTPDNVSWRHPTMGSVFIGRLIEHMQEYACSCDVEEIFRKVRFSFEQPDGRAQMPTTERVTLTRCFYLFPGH

Chain of Cytochrome P450 3A4 (P08684 whole entry): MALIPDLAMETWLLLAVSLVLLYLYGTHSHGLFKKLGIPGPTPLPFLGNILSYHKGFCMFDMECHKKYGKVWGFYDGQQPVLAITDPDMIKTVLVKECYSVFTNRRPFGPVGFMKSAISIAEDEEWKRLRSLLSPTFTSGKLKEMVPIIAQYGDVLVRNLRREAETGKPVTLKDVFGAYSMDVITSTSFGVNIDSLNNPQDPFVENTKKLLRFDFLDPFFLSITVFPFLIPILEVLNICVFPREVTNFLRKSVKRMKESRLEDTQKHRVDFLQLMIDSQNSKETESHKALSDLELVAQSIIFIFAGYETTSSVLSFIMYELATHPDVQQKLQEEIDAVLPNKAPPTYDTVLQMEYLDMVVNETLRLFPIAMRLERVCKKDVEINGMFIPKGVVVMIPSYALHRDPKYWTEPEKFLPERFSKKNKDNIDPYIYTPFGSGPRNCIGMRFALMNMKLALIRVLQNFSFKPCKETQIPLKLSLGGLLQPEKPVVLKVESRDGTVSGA
Chain of Platelet-activating factor receptor (P25105 whole entry): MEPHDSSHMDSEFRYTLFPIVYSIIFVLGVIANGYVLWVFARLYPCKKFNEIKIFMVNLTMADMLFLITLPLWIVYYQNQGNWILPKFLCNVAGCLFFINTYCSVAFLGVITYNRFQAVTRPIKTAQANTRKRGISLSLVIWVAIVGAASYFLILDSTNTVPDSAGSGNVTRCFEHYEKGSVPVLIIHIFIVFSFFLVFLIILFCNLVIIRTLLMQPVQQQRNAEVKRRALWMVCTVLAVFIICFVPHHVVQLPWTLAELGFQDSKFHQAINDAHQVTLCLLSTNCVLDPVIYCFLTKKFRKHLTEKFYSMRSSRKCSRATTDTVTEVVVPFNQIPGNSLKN
Chain of Prostaglandin G/H synthase 1 (P23219 whole entry): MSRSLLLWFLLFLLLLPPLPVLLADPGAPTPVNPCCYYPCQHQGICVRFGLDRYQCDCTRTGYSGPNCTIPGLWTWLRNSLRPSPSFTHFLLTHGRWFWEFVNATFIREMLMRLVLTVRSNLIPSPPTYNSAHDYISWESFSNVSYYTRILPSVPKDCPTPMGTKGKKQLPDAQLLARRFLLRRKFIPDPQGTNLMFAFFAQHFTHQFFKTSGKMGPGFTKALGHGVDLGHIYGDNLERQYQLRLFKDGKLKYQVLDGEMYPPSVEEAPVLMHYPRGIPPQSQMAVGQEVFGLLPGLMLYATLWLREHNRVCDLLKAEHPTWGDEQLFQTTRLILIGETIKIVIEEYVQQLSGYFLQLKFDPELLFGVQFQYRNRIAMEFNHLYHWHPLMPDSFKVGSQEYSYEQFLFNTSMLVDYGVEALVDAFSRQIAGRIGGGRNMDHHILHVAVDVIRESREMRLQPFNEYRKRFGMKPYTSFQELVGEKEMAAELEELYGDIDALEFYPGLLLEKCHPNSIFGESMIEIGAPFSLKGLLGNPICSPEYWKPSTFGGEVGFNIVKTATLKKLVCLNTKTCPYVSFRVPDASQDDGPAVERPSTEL
Chain of Beta-2 adrenergic receptor (P07550 whole entry): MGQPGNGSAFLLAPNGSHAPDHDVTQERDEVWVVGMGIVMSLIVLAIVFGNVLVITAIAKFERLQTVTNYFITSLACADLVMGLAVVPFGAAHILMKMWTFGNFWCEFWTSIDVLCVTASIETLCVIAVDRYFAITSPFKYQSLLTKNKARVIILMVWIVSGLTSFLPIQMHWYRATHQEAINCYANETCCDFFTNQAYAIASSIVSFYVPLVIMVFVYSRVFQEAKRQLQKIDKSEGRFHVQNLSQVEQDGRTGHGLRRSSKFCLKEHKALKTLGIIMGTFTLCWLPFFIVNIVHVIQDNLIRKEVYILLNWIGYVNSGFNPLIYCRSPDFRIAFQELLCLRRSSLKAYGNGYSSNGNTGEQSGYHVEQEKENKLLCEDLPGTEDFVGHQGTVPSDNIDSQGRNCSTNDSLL

Brc1ccccc1 [BROMOBENZENE]
Not Active: IC50 [1] | IC50 [2] | Ki [2] | IC50 [3] | Ki [3] | IC50 [4] | Ki [4] | IC50 [5] | IC50 [6] | IC50 [7] | IC50 [8] | Ki [8] | IC50 [9] | IC50 [10] | Ki [10] | IC50 [11] | IC50 [12]

CC[C@@]1(O)C(=O)OCc2c1cc1n(c2=O)Cc2cc3ccccc3nc2-1 [CAMPTOTHECIN]
Not Active: IC50 [1] | IC50 [2] | Ki [2] | IC50 [3] | Ki [3] | IC50 [4] | Ki [4] | IC50 [5] | IC50 [6] | IC50 [7] | IC50 [8] | Ki [8] | IC50 [9] | IC50 [10] | Ki [10] | IC50 [11] | IC50 [12]

COCc1c(C(C)C)nc(C(C)C)c(/C=C/[C@@H](O)C[C@@H](O)CC(=O)O)c1-c1ccc(F)cc1 [CERIVASTATIN]
Not Active: IC50 [1] | IC50 [2] | Ki [2] | IC50 [3] | Ki [3] | IC50 [4] | Ki [4] | IC50 [5] | IC50 [6] | IC50 [7] | IC50 [8] | Ki [8] | IC50 [9] | IC50 [10] | Ki [10] | IC50 [11] | IC50 [12]

CC(=O)O[C@]1(C(C)=O)CC[C@H]2[C@@H]3C=C(Cl)C4=CC(=O)CC[C@]4(C)[C@H]3CC[C@@]21C [CHLORMADINONE ACETATE]
Not Active: IC50 [1] | IC50 [2] | Ki [2] | IC50 [3] | Ki [3] | IC50 [4] | Ki [4] | IC50 [5] | IC50 [6] | IC50 [7] | IC50 [8] | Ki [8] | IC50 [9] | IC50 [10] | Ki [10] | IC50 [11] | IC50 [12]

O=C1CCc2cc(OCCCCc3nnnn3C3CCCCC3)ccc2N1 [CILOSTAZOL]
Not Active: IC50 [1] | IC50 [2] | Ki [2] | IC50 [3] | Ki [3] | IC50 [4] | Ki [4] | IC50 [5] | IC50 [6] | IC50 [7] | IC50 [8] | Ki [8] | IC50 [9] | IC50 [10] | Ki [10] | IC50 [11] | IC50 [12]

C[C@]12CCC(=O)C=C1CC[C@@H]1[C@@H]2C(=O)C[C@@]2(C)[C@H]1CC[C@]2(O)C(=O)CO [CORTISONE]
Not Active: IC50 [1] | IC50 [2] | Ki [2] | IC50 [3] | Ki [3] | IC50 [4] | Ki [4] | IC50 [5] | IC50 [6] | IC50 [7] | IC50 [8] | Ki [8] | IC50 [9] | IC50 [10] | Ki [10] | IC50 [11] | IC50 [12]
